According to patent publication US10577382B2, “Fused heterocyclic compound” (TAKEDA PHARMACEUTICAL COMPANY LIMITED, priority 2016, dated 2020):

Tests used:
CLK2 enzyme = target: T1, CLK2 enzyme (Homo sapiens, UniProt P49760); assay: Measurement of CLK2 inhibitory activity (LANCE time-resolved fluorescence, ULight-labeled MBP peptide); type: biochemical; conditions: compound 1 μM; ATP 1 mM; read-out: CLK2 activity inhibition ratio at compound concentration of 1 μM (ATP 1 mM)
T1 construct: purchased Thermo Fisher Scientific
T1 sequence (P49760 whole entry): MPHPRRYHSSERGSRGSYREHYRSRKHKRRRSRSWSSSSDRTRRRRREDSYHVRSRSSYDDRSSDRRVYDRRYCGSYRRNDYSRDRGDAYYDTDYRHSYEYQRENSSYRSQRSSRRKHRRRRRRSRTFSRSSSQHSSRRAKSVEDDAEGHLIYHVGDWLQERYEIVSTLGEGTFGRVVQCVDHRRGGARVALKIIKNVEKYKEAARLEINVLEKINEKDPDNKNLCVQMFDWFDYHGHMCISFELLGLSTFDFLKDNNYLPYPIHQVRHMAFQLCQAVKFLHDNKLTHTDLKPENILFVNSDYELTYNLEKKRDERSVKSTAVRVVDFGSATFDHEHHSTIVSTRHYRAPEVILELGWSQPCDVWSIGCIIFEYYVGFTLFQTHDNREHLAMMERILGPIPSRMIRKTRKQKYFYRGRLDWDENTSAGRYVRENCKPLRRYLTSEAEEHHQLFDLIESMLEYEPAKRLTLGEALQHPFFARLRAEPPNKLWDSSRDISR
Method: A test compound dissolved in DMSO was added to a reaction solution (50 mM HEPES (pH: 7.5), 10 mM MgCl2, 1 mM EGTA, 2 mM DTT, 0.01% Tween 20, 0.01% BSA) containing a CLK2 enzyme (Thermo Fisher Scientific) and an ULight-labeled MBP peptide (PerkinElmer), and the mixture was then reacted at room temperature for 10 minutes. An ATP solution was added to a final concentration of 1 mM to initiate an enzyme reaction, and the reaction was carried out at room temperature for 60 minutes. A europium-labeled anti-phosphorylated MBP antibody (PerkinElmer) and a LANCE Detection buffer (PerkinElmer) containing EDTA with a final concentration of 20 mM were added to stop the reaction, the mixture was left standing for 60 minutes, and the time-resolved fluorescence value (excitation 320 nm, and emission 615 nm and 665 nm) was measured by Envision (PerkinElmer). The inhibition ratio (%) of CLK2 by the test compound was calculated in accordance with the following expression. Inhibition ratio (%)=(1−(count of test compound−blank)÷(control−blank))×100
The count of the CLK2 enzyme reaction solution without addition of the compound was described as a control, and the count without addition of the compound and addition of the CLK2 enzyme was described as a blank. The concentration at which the inhibition ratio was 50% was defined as an IC50 value.

HCT116 cells = assay: Growth inhibitory activity using HCT116 cells (Cell Titer-Glo); type: cell-based, human; conditions: Homo sapiens, HCT-116, 72 h, compound 1 μM, 3 days, read-out: Cell growth inhibition ratio at compound concentration of 1 μM
Method: HCT 116 cells (ATCC) were seeded in a 384-well plate at a density of 6×10^2 cells/well, and cultured overnight in a cell culture medium McCoy's 5A (Thermo Fisher Scientific) containing 10% FBS (fetal bovine serum) and 1% penicillin/streptomycin. The dissolved test compound was added in the cell medium, and the cell medium was left standing in a CO2 incubator (37° C.) for 3 days. A Cell Titer-Glo solution (Promega Corporation) was added, the mixture was stirred at room temperature for 10 minutes, and the emission value was measured by Envision (PerkinElmer). The inhibition ratio (%) of HCT116 cell growth by the test compound was calculated in accordance with the following expression. Inhibition ratio (%)=(1−(count of test compound−blank)÷(control−blank))×100
The count of the HCT116 cell suspension without addition of the compound was described as a control, and the count without addition of the compound and addition of HCT116 cells was described as a blank. The concentration at which the inhibition ratio was 50% was defined as an IC50 value.

[1] = target: T2, phosphorylated CLK2 protein (Ser98) (Homo sapiens, UniProt P49760); assay: In vitro CLK2 phosphorylation inhibitory action in HCT116 cells (western blot); type: cell-based; conditions: 300 nM, 16 hours, relative to control group
T2 construct: endogenous in cells; host or cells: HCT116 (ATCC)
T2 sequence (P49760 whole entry): as above
Method: (§1) 1000 μl (8,0000 cells/well) of a cell suspension of human colon adenocarcinoma cells HCT116 (purchased from ATCC) was seeded in a 12-well plate, and cultured at 37° C. for 2 days in a 5% CO2 gas incubator. The test compound solution was added to a final concentration of 300 nM, and the mixture was cultured for 16 hours. The plate was washed with PBS, a protein extract (10% glycerol, 1% sodium dodecyl sulfate, 62.5 mM Tris-HCl (pH: 7.5)) was then added to dissolve the cells, and the solution was treated at 95° C. for 5 minutes. Thereafter, the amount of protein was determined using BCA Protein Assay Kit (Thermo Fisher Scientific).
(§2) The amount of the protein in each sample was adjusted, SDS-PAGE was then performed, and the protein was transferred to a PVDF membrane using an iBlot (registered trademark) gel transfer system (Invitrogen). […] The membrane was washed in the same procedure as described above, a phosphorylated CLK2 protein, a MDM4 protein, a p53 protein and a p21 protein each labeled with an antibody were then made chemiluminescent using ImmunoStar ZETA (Wako Pure Chemical Industries, Ltd.), and luminescence was detected with LAS-3000 Image Analyzer (Fujifilm Corporation). The luminescence intensity was determined using Multi Gauge Ver. 3.1 (Fujifilm Corporation), and quantified. […]

p21 protein = assay: p21 induction activity in HCT116 cells (western blot); type: cell-based, human; conditions: 300 nM, 16 hours, relative to control group
Method: as §1, §2

[2] = test system: MDM4 transcription product (MDM4 FL / MDM4 S); assay: In vitro MDM4 alternative splicing ratio in HCT116 cells (quantitative PCR); type: cell-based, human; conditions: 300 nM, 6 hours, PSI = MDM4 FL/(MDM4 FL + MDM4 S) x 100, Control (DMSO) 75.75
Method: 1000 μl (20,0000 cells/well) of a cell suspension of human colon adenocarcinoma cells HCT116 (purchased from ATCC) was seeded in a 12-well plate, and cultured at 37° C. for 1 day in a 5% CO2 gas incubator. The test compound solution was added to a final concentration of 300 nM, and the mixture was cultured for 6 hours. The plate was washed with PBS, the cells were then dissolved using RNeasy Mini Kit (QIAGEN), and RNA was extracted. Using cDNA after reverse transcription reaction, the number of copies of the MDM4 transcription product containing exon 6 (MDM4 FL) and the MDM4 transcription product in which exon 6 was skipped (MDM4 S) was measured by quantitative PCR. Primers with the following sequences were used for the measurement.
Primers with the following sequences were used for the measurement.
The following oligos were used for preparing a calibration curve.
A change in MDM4 alternative splicing ratio (PSI) is calculated in accordance with the following expression, and changes caused by the test compound are shown in Table 8. PSI=(number of copies of MDM4 FL÷(number of copies of MDM4 FL+number of copies of MDM4 S))×100

COc1ncnn2ccc(-c3cnc4nc(C)n(Cc5nnc([C@@H](C)F)o5)c4c3)c12 [Example 286, 1-((5-((1R)-1-fluoroethyl)-1,3,4-oxadiazol-2-yl)methyl)-6-(4-methoxypyrrolo[2,1-f][1,2,4]triazin-5-yl)-2-methyl-1H-imidazo[4,5-b]pyridine]
inhibition at 1 µM (CLK2 enzyme): 100% | inhibition at 1 µM (HCT116 cells): 95% | Residual ratio (phosphorylated CLK2) [1]: 71.4% | Increase ratio (p21) (p21 protein): 556.4% | PSI (MDM4 alternative splicing ratio) [2]: 45.81
